The numbers were not newly measured in patent US7795220B2, “Conformationally constrained parathyroid hormones with alpha-helix stabilizers” (The General Hospital Corporation, priority 2003, dated 2010), which cites them from elsewhere.

The target in the series is T1, P1R (Homo sapiens, UniProt Q03431).
T1 sequence (Q03431 27-593): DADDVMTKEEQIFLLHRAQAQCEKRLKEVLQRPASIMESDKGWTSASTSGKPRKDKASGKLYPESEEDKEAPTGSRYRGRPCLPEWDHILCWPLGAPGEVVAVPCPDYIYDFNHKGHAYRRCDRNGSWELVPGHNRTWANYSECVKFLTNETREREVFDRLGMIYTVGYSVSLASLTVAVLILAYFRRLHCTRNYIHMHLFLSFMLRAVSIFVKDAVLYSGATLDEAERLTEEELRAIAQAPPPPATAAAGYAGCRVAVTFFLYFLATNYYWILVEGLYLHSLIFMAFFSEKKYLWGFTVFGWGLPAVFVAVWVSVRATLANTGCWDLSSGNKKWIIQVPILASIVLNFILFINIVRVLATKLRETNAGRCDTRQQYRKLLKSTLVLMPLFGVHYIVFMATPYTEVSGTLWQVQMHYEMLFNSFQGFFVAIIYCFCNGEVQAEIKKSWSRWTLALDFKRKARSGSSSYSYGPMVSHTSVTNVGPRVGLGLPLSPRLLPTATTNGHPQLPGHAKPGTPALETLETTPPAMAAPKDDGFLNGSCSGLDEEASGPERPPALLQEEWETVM
As to conditions: literature; read-out: cAMP-signaling potency (EC50); cited from earlier work.

Regarding PTH(1-34), the concentration giving a half-maximal response (EC50) (usually the concentration at which the effect is half-maximal) is approximately 2 nM.
